# Source: patent publication US8623416B2 (priority 2009, dated 2014)
# Entries after “also recorded” stand apart in the source; their conditions may differ. Like-named read-outs stand apart in the source and are kept apart here.
# Columns and labels:
# Yellow Fever [1] = tested on: Yellow Fever; set-up: species or system Syrian hamsters; conditions: hamster, in vivo
# Yellow Fever [2] = tested on: Yellow Fever; set-up: species or system Syrian hamsters; conditions: hamster, in vivo; remark: listed apart in the source
# [3] = tested on: murine cytomegalovirus (MCMV); type: in vivo, Balb/c mice; conditions: for viral titers in lungs and salivary glands vs other groups / viral titers in spleen and liver vs control: day 7
# [4] = tested on: Eastern Equine Encephalitis Virus; set-up: species or system hamsters (Syrian golden); conditions: hamster, in vivo
# [5] = tested on: Eastern Equine Encephalitis Virus; set-up: species or system mice; conditions: mouse, in vivo
# human Hepatitis B virus = assay: Hepatitis B virus replication in primary human hepatocytes, PCR (Example 19); type: cell-based
# Experimental: The purpose of this experiment was to determine the antiviral activity of squalamine against human Hepatitis B virus. The experiment was conducted in vitro, using primary human hepatocytes.
# Experimental design: Primary human hepatocytes were established in a 96 well microtiter plate. Squalamine was then added at concentrations of 2, 6 or 20 μg/ml followed by an inoculum of Hep B virus, and then in culture for 16 hours, after which fresh medium was introduced, and the cells maintained in culture for 14 days. In a second experiment, squalamine at 6 or 20 μg/ml was added to the cells at 24 hours post inoculation for a 16 hour exposure, followed by removal of medium, replacement with fresh medium, and continued culture for 14 days. Viral growth was measured by PCR using viral specific primers and normalized to the total RNA extracted from each corresponding well.
# [6] = for Toxicity: hamster, in vivo, sc
# [7] = tested on: human immunodeficiency virus (HIV)
# [8] = in vivo; cited from earlier work
# [9] = in vivo; cited from earlier work; remark: listed apart in the source
# [10] = tested on: human Hepatitis Delta virus; assay: Hepatitis Delta virus replication in primary human hepatocytes, PCR (Example 20)
# [11] = type: physicochemical; conditions: 0.1 ml squalamine lactate 10 mg/ml in water + 1 volume 0.1M solution of the anion, turbid = insoluble salt form
# [12] = 10 mg of squalamine as a phosphate suspension
# [13] = squalamine phosphate 10 mg/kg/day s.c.
# [14] = mouse, in vivo, ip, 10 mg/kg/day
# [15] = 20 μg/ml, added during initial stages of infection
compound,measurement,setting,value
"3 beta-N-1-(N-[3-(4-aminobutyl)]-1,3-diaminopropane)-7 alpha,24 zeta-dihydroxy-5 alpha-cholestane 24-sulfate [squalamine]",survival,Yellow Fever [1],70%
same,animals cured,Yellow Fever [2],40%
same,outcome of treatment of established infection,Yellow Fever [2],cure a lethal infection
same,survival through day 21,Yellow Fever [2],60%
same,viral titers in lung compared with control,[3]; 10 mg/kg/day i.p.,trend toward reduction
same,viral titers in lungs and salivary glands vs other groups,[3]; 10 mg/kg/day i.p.,no significant differences
same,viral titers in spleen and liver vs control,[3]; 10 mg/kg/day i.p.,significantly lower than in the control cohort
same,viral titers in lungs and salivary glands vs other groups,[3]; [13],no significant differences
same,viral titers in spleen and liver vs control,[3]; [13],significantly lower than in the control cohort
same,virus in the liver and spleen,"[3]; mouse, in vivo",significantly reduced; also recorded: undetectable levels
same,effect on viral growth in the salivary gland,[3]; [14],little effect
same,"reduction in viral growth in liver, spleen, and lung",[3]; [14],greater than 10 fold
same,virus in the liver and spleen,[3]; [14],undetectable levels
same,effect on survival,[4],extended survival; also recorded: increase survival
same,effect on viremia,[4],significantly reduce viremia
same,hamsters still alive at the end of treatment,[4],6/10
same,plasma concentrations of virus lower than vehicle,[4],about 100 fold
same,efficacy in mice,[5],ineffective
same,inhibition of viral production,"human Hepatitis B virus; 2 μg/ml, added only at the outset of infection",14%
same,inhibition of viral production,"human Hepatitis B virus; 6 μg/ml, added at 24 hours",30%
same,inhibition of viral production,"human Hepatitis B virus; 6 μg/ml, added at the onset of infection",54%
same,inhibition of viral production,"human Hepatitis B virus; 20 μg/ml, added at 24 hours",64%
same,inhibition of viral production,human Hepatitis B virus; [15],83%
same,Toxicity,[6]; 15 mg/kg/day,Mild/moderate by day 1
same,Toxicity,[6]; 30 mg/kg/day,moderate
same,Toxicity,[6]; 60 mg/kg/day,"Severe, open wounds"
same,cell viability,Dengue virus,not diminished
same,inhibition of viral infection,Dengue virus,100%
same,Toxicity,[7],no evidence of toxicity
same,inhibition of HIV infection,[7],about 50%; also recorded: about 20%
same,tolerability,[8],well tolerated
same,tolerability,[9],well tolerated
same,inhibition of viral production,[10]; [15],90%
same,cytotoxicity in vitro,"[10]; 60 μg/ml, primary human hepatocytes",cytotoxic
O=C[C@H](O)[C@@H](O)[C@H](O)[C@H](O)COP(=O)(O)O [Glucose 6-phosphate],Turbidity,[11],No and no
CC(=O)C(=O)[O-].[Na+] [Sodium pyruvate],Turbidity,[11],No and no
O=P([O-])([O-])OP(=O)([O-])OP(=O)([O-])[O-].[Na+].[Na+].[Na+].[Na+].[Na+] [Sodium triphosphate],Turbidity,[11]; triphosphate,Yes and yes
"NC(=O)c1ncn([C@@H]2O[C@H](CO)[C@@H](O)[C@H]2O)n1 [ribavirin, reference compound]",survival vs placebo,Yellow Fever [1],fared no better than the placebo-treated cohort
squalamine phosphate,survival,Yellow Fever [1],70%
same,water added until fully dissolved,[12],about 250 ml
same,Toxicity,[6]; 15 mg/kg/day,none
same,Toxicity,[6]; 30 mg/kg/day,none
same,Toxicity,[6]; 60 mg/kg/day,none
same,lesions at the sites of administration,"[6]; s.c. dosing at 10 mg/ml, recorded 7 days post injection",no lesions
same,persistence of local signs (lactate: signs and symptoms; phosphate: slight swelling),0.1 ml of 10 mg/ml s.c.,about 1 week
same,local signs at injection site,"human, in vivo, sc","free of visible signs of irritation, save for a slight swelling"
same,pain on injection,"human, in vivo, sc",no pain other than that produced by the needle prick
